15 compounds from patent EP4667464A1 (Cyrus Therapeutics Inc., priority 2023, dated 2024) can be followed below.

Each structure is given as a SMILES string. Like-named read-outs stand apart in the source and are kept apart here. Some results are limits rather than exact numbers.

One assay has as its target T1, SOS1 (Homo sapiens, UniProt Q07889).
T1 construct: HIS-SOS1cat (160 nM; Cytoskeleton, US); His (N); purchased Cytoskeleton
T1 sequence (Q07889 564-1049 limits assumed): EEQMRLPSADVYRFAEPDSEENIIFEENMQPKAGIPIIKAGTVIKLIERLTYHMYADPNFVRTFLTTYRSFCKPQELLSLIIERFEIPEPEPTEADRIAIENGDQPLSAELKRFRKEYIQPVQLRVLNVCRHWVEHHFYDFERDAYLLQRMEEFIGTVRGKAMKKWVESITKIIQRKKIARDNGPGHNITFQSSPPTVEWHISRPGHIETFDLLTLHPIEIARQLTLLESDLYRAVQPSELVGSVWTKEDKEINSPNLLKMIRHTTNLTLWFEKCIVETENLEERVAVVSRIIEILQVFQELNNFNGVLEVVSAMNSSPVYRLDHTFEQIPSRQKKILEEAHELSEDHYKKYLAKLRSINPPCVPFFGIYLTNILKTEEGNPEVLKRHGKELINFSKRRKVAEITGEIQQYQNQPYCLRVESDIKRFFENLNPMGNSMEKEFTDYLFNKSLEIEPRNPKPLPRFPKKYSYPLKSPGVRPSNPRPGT
Nature of the assay: SOS-catalyzed nucleotide exchange assay (HTRF, SOS1-mediated GTP loading of KRAS G12D). In kind it is biochemical. A general note: In TR-FRET formats the signal depends on donor and acceptor labels being close together.

For assay [1], the system named is lung cancer cell line NCI-H358 having the KRAS G12C variant. Nature of the assay: Cancer cell growth inhibition, 3D spheroids (CellTiter-Glo 3D). In kind it is cell-based. The note with it: Homo sapiens, NCI-H358, 120 h, read-out: H358 cell viability. The method in brief:
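NCI-H358 (KRAS G12C) spheroids lysed with CellTiter-Glo 3D for 30 min with shaking after 10 min at room temperature. Growth in compound-treated wells expressed relative to untreated wells set to 100%.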

The target of a further assay is T2, KRAS G12C::SOS1 (Homo sapiens, UniProt Q07889).
T2 construct: purchased CISBIO 64KRASG12PEH
T2 sequence (Q07889 1-1333): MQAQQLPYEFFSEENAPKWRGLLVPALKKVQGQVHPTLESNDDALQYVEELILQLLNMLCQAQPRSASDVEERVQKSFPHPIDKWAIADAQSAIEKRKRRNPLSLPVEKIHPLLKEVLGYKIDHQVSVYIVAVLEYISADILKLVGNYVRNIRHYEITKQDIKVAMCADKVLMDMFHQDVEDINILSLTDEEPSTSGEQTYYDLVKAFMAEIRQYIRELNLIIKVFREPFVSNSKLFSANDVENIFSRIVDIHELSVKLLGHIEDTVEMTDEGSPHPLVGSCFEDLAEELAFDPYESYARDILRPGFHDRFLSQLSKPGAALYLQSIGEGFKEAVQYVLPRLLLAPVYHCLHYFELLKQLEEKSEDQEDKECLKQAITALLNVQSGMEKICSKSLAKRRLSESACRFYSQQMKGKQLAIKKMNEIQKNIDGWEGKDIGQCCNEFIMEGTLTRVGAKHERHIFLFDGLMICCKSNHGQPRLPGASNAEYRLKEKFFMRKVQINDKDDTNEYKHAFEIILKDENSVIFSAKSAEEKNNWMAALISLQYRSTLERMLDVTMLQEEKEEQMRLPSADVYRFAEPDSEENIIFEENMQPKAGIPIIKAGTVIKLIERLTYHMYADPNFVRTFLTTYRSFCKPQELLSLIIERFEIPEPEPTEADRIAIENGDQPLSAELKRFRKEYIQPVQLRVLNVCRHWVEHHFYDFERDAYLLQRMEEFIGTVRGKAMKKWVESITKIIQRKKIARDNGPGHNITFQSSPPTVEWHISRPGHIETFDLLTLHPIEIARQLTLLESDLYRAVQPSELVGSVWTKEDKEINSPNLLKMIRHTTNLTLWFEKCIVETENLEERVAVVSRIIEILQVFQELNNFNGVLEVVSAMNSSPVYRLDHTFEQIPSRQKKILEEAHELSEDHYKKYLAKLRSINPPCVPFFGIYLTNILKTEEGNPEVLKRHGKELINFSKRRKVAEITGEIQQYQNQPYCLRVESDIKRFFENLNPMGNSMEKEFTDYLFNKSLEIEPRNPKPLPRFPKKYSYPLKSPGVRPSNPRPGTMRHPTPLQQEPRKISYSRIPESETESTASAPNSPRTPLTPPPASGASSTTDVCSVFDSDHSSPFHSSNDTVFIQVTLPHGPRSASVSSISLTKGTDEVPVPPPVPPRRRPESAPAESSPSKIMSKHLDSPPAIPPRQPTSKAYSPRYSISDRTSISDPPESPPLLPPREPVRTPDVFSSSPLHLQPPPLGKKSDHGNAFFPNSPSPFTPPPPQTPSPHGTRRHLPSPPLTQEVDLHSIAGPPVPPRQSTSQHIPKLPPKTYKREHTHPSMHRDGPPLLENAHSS
Description: KRAS G12C::SOS1 protein-protein interaction (PPI) inhibition assay (HTRF). In kind it is binding. An outline of the steps:
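Compounds, at eight 3-fold dilutions from 3 µM, were mixed with GTP-loaded Tag1-KRAS G12C, Tag2-SOS1 and a terbium-cryptate donor plus XL665 acceptor antibody pair. After 2 h at room temperature, time-resolved FRET reported the KRAS–SOS1 interaction.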

Setting [2] is: GST-KRAS G12D, HIS-SOS1cat, compound 128 pM to 10 µM, read-out: SOS-catalyzed nucleotide exchange assay.
Setting [3] is: 3D spheroids, 0.002-10 µM, 5 days.
[4] abbreviates: 8 concentrations from 3 µM, three replicates, read-out: KRAS G12C::SOS1 PPI.

On to `C[C@@H](NC(=O)c1cc(C2=CCCCC2)c(=O)n(-c2cncc(-c3cnnn3C)c2)n1)c1cccc(C(F)(F)F)c1F` [Example 1-64, N-{(R)-1-[2-fluoro-3-(trifluoromethyl)phenyl]ethyl}-5-(1-cyclohexen-1-yl)-1-[5-(1-methyl-1H-1,2,3-triazol-5-yl)-3-pyridyl]-6-oxo-1,6-dihydropyridazine-3-carboxamide], for which the IC50 was over 150 nM at SOS1 (setting [2]), 1000 to 3000 nM in assay [1] (setting [3]) and over 150 nM on KRAS G12C::SOS1 (setting [4]).
With `C[C@@H](NC(=O)c1ccc(=O)n(-c2cc(-c3cnnn3C3CC3)cnc2F)c1)c1cccc(C(F)(F)F)c1F` [Example 1-67, (R)-5'-(1-cyclopropyl-1H-1,2,3-triazol-5-yl)-2'-fluoro-N-(1-(2-fluoro-3-(trifluoromethyl)phenyl)ethyl)-2-oxo-2H-[1,3'-bipyridine]-5-carboxamide], the IC50 at SOS1 (setting [2]) is under 50 nM; in assay [1] (setting [3]) it was under 1000 nM; at KRAS G12C::SOS1 (setting [4]), 50 to 150 nM.
As for `C[C@@H](NC(=O)c1ccc(=O)n(-c2cncc(-c3cnnn3C)c2)n1)c1cc(N)cc(C(F)F)c1` [Example 2, N-[(1R)-1-[3-amino-5-(difluoromethyl)phenyl]ethyl]-1-[5-(3-methyltriazol-4-yl)-3-pyridyl]-6-oxo-pyridazine-3-carboxamide], the IC50 is 50 to 150 nM against SOS1, under 1000 nM in assay [1] (setting [3]) and 50 to 150 nM against KRAS G12C::SOS1.
For `C[C@@H](NC(=O)c1ccc(=O)n(-c2cncc(-c3cnnn3C)c2)n1)c1cc(N)cc(C(F)(F)F)c1F` [Example 2-1, N-[(1R)-1-[5-amino-2-fluoro-3-(trifluoromethyl)phenyl]ethyl]-1-[5-(3-methyltriazol-4-yl)-3-pyridyl]-6-oxo-pyridazine-3-carboxamide], the IC50 is under 50 nM at SOS1 (setting [2]), under 1000 nM in assay [1] (setting [3]) and under 50 nM on KRAS G12C::SOS1 (setting [4]).
With `Cc1c([C@@H](C)NC(=O)c2ccc(=O)n(-c3cncc(-c4ccnn4C)c3)n2)cc(N)cc1C(F)(F)F` [Example 2-4, N-[(1R)-1-[5-amino-2-methyl-3-(trifluoromethyl)phenyl]ethyl]-1-[5-(2-methylpyrazol-3-yl)-3-pyridyl]-6-oxo-pyridazine-3-carboxamide], the values for the IC50 (on SOS1 (setting [2]); in assay [1] (setting [3]); on KRAS G12C::SOS1 (setting [4])) were under 50 nM, under 1000 nM and under 50 nM, respectively.
With `Cc1cc(C(=O)N[C@H](C)c2cc(N)cc(C(F)(F)F)c2F)nn(-c2cncc(-c3cnnn3C)c2)c1=O` [Example 2-5, N-[(1R)-1-[5-amino-2-fluoro-3-(trifluoromethyl)phenyl]ethyl]-5-methyl-1-[5-(3-methyltriazol-4-yl)-3-pyridyl]-6-oxo-pyridazine-3-carboxamide], the IC50 on SOS1 (setting [2]) was under 50 nM; in assay [1] (setting [3]), under 1000 nM; at KRAS G12C::SOS1 (setting [4]) it was under 50 nM.
Turning to `Cc1c([C@@H](C)NC(=O)c2cc(C)c(=O)n(-c3cncc(-c4cnnn4C)c3)n2)cc(N)cc1C(F)(F)F` [Example 2-6, N-[(1R)-1-[5-amino-2-methyl-3-(trifluoromethyl)phenyl]ethyl]-5-methyl-1-[5-(3-methyltriazol-4-yl)-3-pyridyl]-6-oxo-pyridazine-3-carboxamide], the IC50 was under 50 nM at SOS1 (setting [2]), under 1000 nM in assay [1] (setting [3]) and under 50 nM on KRAS G12C::SOS1 (setting [4]).
Take `Cc1cc(C(=O)N[C@H](C)c2cc(N)cc(C(F)F)c2)nn(-c2cncc(-c3cnnn3C)c2)c1=O` [Example 2-7, N-[(1R)-1-[3-amino-5-(difluoromethyl)phenyl]ethyl]-5-methyl-1-[5-(3-methyltriazol-4-yl)-3-pyridyl]-6-oxo-pyridazine-3-carboxamide]: the results for the IC50 (on SOS1 (setting [2]); in assay [1] (setting [3]); on KRAS G12C::SOS1 (setting [4])) were under 50 nM, over 3000 nM and under 50 nM, respectively.
Turning to `C[C@@H](NC(=O)c1cc(C#N)c(=O)n(-c2cncc(-c3cnnn3C)c2)n1)c1cccc(C(F)(F)F)c1F` [Example 3-2, 5-cyano-N-{(1R)-1-[2-fluoro-3-(trifluoromethyl)phenyl]ethyl}-1-[5-(1-methyl-1H-1,2,3-triazol-5-yl)-3-pyridyl]-6-oxo-1,6-dihydropyridazine-3-carboxamide], the IC50 was 50 to 150 nM at SOS1 (setting [2]), under 1000 nM in assay [1] (setting [3]) and 50 to 150 nM on KRAS G12C::SOS1 (setting [4]).
In the case of `C[C@@H](NC(=O)c1ccc(=O)n(-c2cnnc(-c3cnnn3C)c2)n1)c1cccc(C(F)(F)F)c1F` [Example 4, N-[(1R)-1-[2-fluoro-3-(trifluoromethyl)phenyl]ethyl]-1-[6-(3-methyltriazol-4-yl)pyridazin-4-yl]-6-oxo-pyridazine-3-carboxamide], the IC50 against SOS1 was over 150 nM; in assay [1], over 3000 nM; at KRAS G12C::SOS1, over 150 nM.
On to `CC(C)n1nncc1-c1cncc(-n2nc(C(=O)N[C@H](C)c3cccc(C(F)(F)F)c3F)cc(CO)c2=O)c1` [Example 6-2, N-{(1R)-1-[2-fluoro-3-(trifluoromethyl)phenyl]ethyl}-1-[5-(1-isopropyl-1H-1,2,3-triazol-5-yl)-3-pyridyl]-5-(hydroxymethyl)-6-oxo-1,6-dihydropyridazine-3-carboxamide], for which the IC50 is under 50 nM at SOS1 (setting [2]), under 1000 nM in assay [1] (setting [3]) and 50 to 150 nM on KRAS G12C::SOS1 (setting [4]).
Turning to `C[C@@H](NC(=O)c1cc(CO)c(=O)n(-c2cncc(-c3cnnn3C3CC3)c2)n1)c1cccc(C(F)(F)F)c1F` [Example 6-3], the IC50 on SOS1 is under 50 nM; in assay [1], under 1000 nM; at KRAS G12C::SOS1, under 50 nM.
`CCn1nncc1-c1cncc(-n2nc(C(=O)N[C@H](C)c3cccc(C(F)(F)F)c3F)cc(CO)c2=O)c1` [Example 6-4, N-{ (R)-1-[2-fluoro-3-(trifluoromethyl)phenyl]ethyl}-1-[5-(1-ethyl-1H-1,2,3-triazol-5-yl)-3-pyridyl]-5-(hydroxymethyl)-6-oxo-1,6-dihydropyridazine-3-carboxamide]: the IC50 was under 50 nM at SOS1 (setting [2]), under 1000 nM in assay [1] (setting [3]) and 50 to 150 nM at KRAS G12C::SOS1 (setting [4]).
Turning to `C[C@@H](NC(=O)c1ccc(=O)n(-c2cc(-c3cnnn3C)cnc2F)n1)c1cccc(C(F)(F)F)c1F` [Example 6-7, N-{(R)-1-[2-fluoro-3-(trifluoromethyl)phenyl]ethyl}-1-[2-fluoro-5-(1-methyl-1H-1,2,3-triazol-5-yl)-3-pyridyl]-6-oxo-1,6-dihydropyridazine-3-carboxamide], the IC50 at SOS1 (setting [2]) is under 50 nM; in assay [1] (setting [3]), under 1000 nM; at KRAS G12C::SOS1 (setting [4]), under 50 nM.
For `C[C@@H](NC(=O)c1ccc(=O)n(-c2cnc(F)c(-c3cnnn3C)c2)n1)c1cccc(C(F)(F)F)c1F` [Example 6], the IC50 is 50 to 150 nM against SOS1, under 1000 nM in assay [1] and 50 to 150 nM on KRAS G12C::SOS1.
